Patent publication US20230047208A1, “RNA Splicing Modulation” (The General Hospital Corporation, priority 2020, published 2023)

Tests used:
[1] = test system: CFTR gene c.2988G>A, exon 18; experiment: CFTR c.2988G>A minigene (EMG-MUT) exon 18 splicing in HEK293 cells, RT-PCR; format: cell-based; details: 60 μM, 24 hours
Excerpt: FIGS. 4C-4F Upper row: The sequences at the 5′ splice site of Exon X in patient cells and minigene constructs are shown (FIGS. 4C-4F). The sequences around the 5′ splice site of Exon X are shown in LOGO plots, with the closely matched CNN motifs indicated beneath the plots. […] Middle row: RT-PCR experiments validated treatment responses in patient cell lines carrying specific splice site mutations. The upper bands indicate the isoform in which the middle Exon X is included while the lower bands indicate the isoform in which the middle Exon X is skipped. Each set of gels is one of the triplicates used to generate the bar plots beneath. […] The statistical significance, as shown in FIGS. 4C-4F, was determined via two-tailed, unpaired Student's test: *p<0.05; **p<0.01; ***p<0.001.
In another example from Table 18, the ClinVar and CNN model predictions related to the CFTR gene carrying a c.2988G>A mutation (see FIG. 4D) were confirmed by stably expressing a minigene containing the full length CFTR coding sequence carrying the c.2988G>A mutation and flanking introns (EMG-MUT)^63 in HEK293 cells. The c.2988G>A mutation was reported to cause skipping of exon 18 in the CFTR gene and is associated with abnormal CFTR function and a mild form of Cystic Fibrosis^64. Using RT-PCR, the minigene was confirmed to harbor the mutation (EMG-MUT), showing only 5% exon 18 inclusion.

[2] = test system: human ELP1 gene with a Exon 20 splice mutation; experiment: In vivo full-length and Δ20 ELP1 mRNA by RT-qPCR in TgFD9 mice; parameters: species or system TgFD9 transgenic mice; details: oral gavage once daily for 7 days, 10, 30, 60 or 100 mg/kg
Protocol: FIGS. 7A-7G show the relative expression of full-length (FL) and Δ20 ELP1 mRNA (left panel), and ELP1 protein quantification (right panel) in brain (FIG. 7A) and liver (FIG. 7B) after oral doses of Compound (I) ranging from 10 to 100 mg/kg in adult transgenic TgFD9 mouse (n=4-6 mice in each treatment group). Comparisons were done within the same group, against the vehicle-treated mice. In the figure, *p<0.05; **p<0.01; ***p<0.001.
FIGS. 7C-E show the relative expression of full-length (FL) and Δ20 ELP1 mRNA (left graphs), and ELP1 protein quantification (right graphs) in kidney (FIG. 7C), heart (FIG. 7D) and skin (FIG. 7E) after oral doses of Compound (I) ranging from 10 to 100 mg/kg in adult transgenic TgFD9 mouse (n=4-6 mice in each treatment group). […] The levels of compound were measured using mass spectrometry. […]
Compound (I) was evaluated in vivo to determine whether splicing correction can lead to a concomitant increase in ELP1 protein. […]
Brain, liver, lung, kidney, heart and skin tissues were removed and snap frozen in liquid nitrogen. […] The yield, purity and quality of the total RNA for each sample were determined using a Nanodrop ND-1000 spectrophotometer. Full-length and mutant ELP1 mRNA expression was quantified by quantitative real-time PCR (qRT-PCR) analysis using CFX384 Touch Real-Time PCR Detection System (BioRad). […] Data were analyzed using SDS software.

Structure (SMILES): Clc1nc(NCc2ccncc2)c2cc[nH]c2n1 [Compound (I), 2-chloro-N-(pyridin-4-ylmethyl)-7H-pyrrolo[2,3-d]pyrimidin-4-amine]
- exon 18 inclusion in EMG-MUT [1]: significantly increased exon inclusion
- full-length ELP1 transcript [2]: increased full-length ELP1 transcript in a dose-dependent manner
